Results published in patent US6689806B1, “Indolinone compounds as kinase inhibitors” (Sugen, Inc., priority 1999, dated 2004).
Where two headings read alike, the source gives them in different places.

Legend:
[1] = molecular target: T1, Her2 (Homo sapiens, UniProt P04626); assay: HER-2 ELISA: EGF receptor-HER2 chimeric receptor assay in whole cells (HER2 kinase); type: cell-based; conditions: NIH3T3 cells with EGFR/HER2 chimeric receptor, phosphotyrosine ELISA
T1 construct: fused on or other part: P00533 (Epidermal growth factor receptor)
T1 sequence (P04626 676-1255 limits assumed): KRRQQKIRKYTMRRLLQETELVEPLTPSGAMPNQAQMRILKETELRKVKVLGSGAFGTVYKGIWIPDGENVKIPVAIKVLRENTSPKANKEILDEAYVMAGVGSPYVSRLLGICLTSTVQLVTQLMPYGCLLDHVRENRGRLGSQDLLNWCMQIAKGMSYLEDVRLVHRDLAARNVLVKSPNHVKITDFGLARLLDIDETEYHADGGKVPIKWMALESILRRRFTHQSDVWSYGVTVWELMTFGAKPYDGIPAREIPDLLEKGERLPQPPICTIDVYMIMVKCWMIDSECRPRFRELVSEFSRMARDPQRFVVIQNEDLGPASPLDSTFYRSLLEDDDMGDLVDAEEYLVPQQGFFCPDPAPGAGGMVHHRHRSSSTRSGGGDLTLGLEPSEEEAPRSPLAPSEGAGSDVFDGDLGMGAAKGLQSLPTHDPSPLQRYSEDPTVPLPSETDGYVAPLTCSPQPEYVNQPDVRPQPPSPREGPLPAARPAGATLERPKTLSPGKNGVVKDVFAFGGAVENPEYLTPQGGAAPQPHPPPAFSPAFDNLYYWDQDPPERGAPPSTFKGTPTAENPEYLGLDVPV
Method: Assay 1: EGF Receptor-HER2 Chimeric Receptor Assay In Whole Cells.
HER2 kinase activity in whole EGFR-NIH3T3 cells was measured as described below:
1. An NIH3T3 cell line overexpressing a chimeric receptor containing the EGFR extracellular domain and intracellular HER2 kinase domain can be used for this assay.
3. Resuspend cells in seeding medium (DMEM, 0.5% bovine serum), and count the cells using trypan blue. Viability above 90% is acceptable. Seed cells in DMEM medium (0.5% bovine serum) at a density of 10,000 cells per well, 100 μL per well, in a 96 well microtiter plate. Incubate seeded cells in 5% CO2 at 37° C. for about 40 hours.
1. Check seeded cells for contamination using an inverted microscope. Dilute drug stock (10 mg/mL in DMSO) 1:10 in DMEM medium, then transfer 5 μL to a TBST well for a final drug dilution of 1:200 and a final DMSO concentration of 1%. Control wells receive DMSO alone. Incubate in 5% CO2 at 37° C. for two hours.
2. Prepare EGF ligand: dilute stock EGF in DMEM so that upon transfer of 10 μL dilute EGF (1:12 dilution), 100 nM final concentration is attained.
4. After 120 minutes incubation with drug, add prepared […] ligand to cells, 10 μL per well, to a final concentration of 100 nM. Control wells receive DMEM alone. Incubate, shaking, at room temperature, for 5 minutes.
5. Remove drug, EGF, and DMEM. Wash cells twice with PBS. Transfer HNTG* to cells, 100 μL per well. Place on ice for 5 minutes. Meanwhile, remove blocking buffer from other ELISA plate and wash with TBST as described above.
6. With a pipette tip securely fitted to a micropipettor, scrape cells from plate and homogenize cell material by repeatedly aspirating and dispensing the HNTG* lysis buffer. Transfer lysate to a coated, blocked, and washed ELISA plate. Incubate shaking at room temperature for one hour.
7. Remove lysate and wash 4 times with TBST. Transfer freshly diluted anti-Ptyr antibody to ELISA plate at 100 μL per well. Incubate shaking at room temperature for 30 minutes in the presence of the anti-Ptyr antiserum (1:3000 dilution in TBST).
8. Remove the anti-Ptyr antibody and wash 4 times with TBST. Transfer the freshly diluted TAGO anti-rabbit IgG antibody to the ELISA plate at 100 μL per well. Incubate shaking at room temperature for 30 minutes (anti-rabbit IgG antibody: 1:3000 dilution in TBST).
9. Remove TAGO detection antibody and wash 4 times with TBST. Transfer freshly prepared ABTS/H2O2 solution to ELISA plate, 100 μL per well. Incubate shaking at room temperature for 20 minutes. (ABTS/H2O2 solution: 1.0 μL 30% H2O2 in 10 mL ABTS stock).
10. Stop reaction by adding 50 μL 5N H2SO4 (optional), and determine O.D. at 410 nm.
11. The maximal phosphotyrosine signal is determined by subtracting the value of the negative controls from the positive controls. The percent inhibition of phosphotyrosine content for extract-containing wells is then calculated, after subtraction of the negative controls.

[2] = molecular target: PDGFR (Homo sapiens, UniProt P09619); assay: Biochemical PDGFR assay (ELISA); set-up: expressed in transfected cells; host or cells: NIH 3T3
PDGFR, sequence (P09619 33-1106): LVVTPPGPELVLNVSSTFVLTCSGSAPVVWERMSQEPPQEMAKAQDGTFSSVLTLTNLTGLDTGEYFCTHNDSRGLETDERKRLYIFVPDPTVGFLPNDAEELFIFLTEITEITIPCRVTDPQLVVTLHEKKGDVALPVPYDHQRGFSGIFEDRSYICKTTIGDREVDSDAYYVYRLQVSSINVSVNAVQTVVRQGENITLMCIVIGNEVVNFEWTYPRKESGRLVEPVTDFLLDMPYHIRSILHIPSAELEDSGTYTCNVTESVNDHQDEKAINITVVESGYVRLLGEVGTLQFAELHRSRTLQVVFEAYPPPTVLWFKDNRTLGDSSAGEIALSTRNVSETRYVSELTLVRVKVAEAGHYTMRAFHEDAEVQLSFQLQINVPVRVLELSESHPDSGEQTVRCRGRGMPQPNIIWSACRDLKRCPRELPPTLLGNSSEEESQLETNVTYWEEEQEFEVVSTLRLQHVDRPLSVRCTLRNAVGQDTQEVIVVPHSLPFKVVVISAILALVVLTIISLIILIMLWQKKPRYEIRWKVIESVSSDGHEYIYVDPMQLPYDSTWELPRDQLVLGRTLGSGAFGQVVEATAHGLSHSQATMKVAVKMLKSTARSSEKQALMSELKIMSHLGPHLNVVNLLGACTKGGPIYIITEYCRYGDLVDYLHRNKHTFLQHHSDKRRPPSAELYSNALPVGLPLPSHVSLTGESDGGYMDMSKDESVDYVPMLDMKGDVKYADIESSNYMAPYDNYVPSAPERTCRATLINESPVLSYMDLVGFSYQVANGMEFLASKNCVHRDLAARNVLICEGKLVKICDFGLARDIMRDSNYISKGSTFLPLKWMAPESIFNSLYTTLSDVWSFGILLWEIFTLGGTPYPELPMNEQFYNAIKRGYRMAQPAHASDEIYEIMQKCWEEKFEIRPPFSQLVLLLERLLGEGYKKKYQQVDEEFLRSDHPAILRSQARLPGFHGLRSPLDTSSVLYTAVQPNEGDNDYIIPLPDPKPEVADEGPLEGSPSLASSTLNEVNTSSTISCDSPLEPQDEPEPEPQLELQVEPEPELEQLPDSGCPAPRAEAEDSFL
Method: This assay measures the in vitro kinase activity of PDGFR using ELISA.
6. PDGFR-β expressing NlH 3T3 cell lysate.
1. Coat Corning 96 well ELISA plates with 0.5 μg 28D4C10 in 100 μL PBS per well, store overnight at 4° C.
5. Dilute lysate in HNTG (10 μg lysate/100 μL HNTG)
(§1) 6. Add 100 μL of diluted lysate to each well. Shake at room temperature for 60 min.
8. Add 80 μL working kinase buffer mix to ELISA plate containing captured PDGFR.
9. Dilute test compound 1:10 in TBS in 96-well polypropylene plates (i.e., 10 μL compound+90 μL TBS).
10. Add 10 μL diluted test compound to ELISA plate.
11. Incubate for 30 minutes while shaking at room temperature.
12. Add 10 μL ATP directly to all wells except negative control well (final well volume should be approximately 100 μL with 20 μM ATP in each well.) Incubate 30 minutes while shaking.
13. After 30 minutes, stop reaction by adding 10 μL of 200 mM EDTA (pH 8.0) to each well.
(§2) 15. Add 100 μL anti-phosphotyrosine (1:3000 dilution in TBST) per well. Incubate 30-45 min. at room temperature, with shaking.
(§3) 17. Add 100 μL Biosource Goat anti-rabbit IgG peroxidase conjugate (1:2000 dilution in TBST) to each well. Incubate 30 min. at room temperature, with shaking.
(§4) 19. Add 100 μL of ABTS/H2O2 solution to each well.
22. Read assay on Dynatech MR7000 ELISA reader: test filter: 410 nM, reference filter: 630 nM.

[3] = molecular target: EGFR (Homo sapiens, UniProt P00533); assay: Biochemical EGFR assay (ELISA); set-up: A431 cell lysate; endogenous in cells; host or cells: A431
EGFR, sequence (P00533 25-1210): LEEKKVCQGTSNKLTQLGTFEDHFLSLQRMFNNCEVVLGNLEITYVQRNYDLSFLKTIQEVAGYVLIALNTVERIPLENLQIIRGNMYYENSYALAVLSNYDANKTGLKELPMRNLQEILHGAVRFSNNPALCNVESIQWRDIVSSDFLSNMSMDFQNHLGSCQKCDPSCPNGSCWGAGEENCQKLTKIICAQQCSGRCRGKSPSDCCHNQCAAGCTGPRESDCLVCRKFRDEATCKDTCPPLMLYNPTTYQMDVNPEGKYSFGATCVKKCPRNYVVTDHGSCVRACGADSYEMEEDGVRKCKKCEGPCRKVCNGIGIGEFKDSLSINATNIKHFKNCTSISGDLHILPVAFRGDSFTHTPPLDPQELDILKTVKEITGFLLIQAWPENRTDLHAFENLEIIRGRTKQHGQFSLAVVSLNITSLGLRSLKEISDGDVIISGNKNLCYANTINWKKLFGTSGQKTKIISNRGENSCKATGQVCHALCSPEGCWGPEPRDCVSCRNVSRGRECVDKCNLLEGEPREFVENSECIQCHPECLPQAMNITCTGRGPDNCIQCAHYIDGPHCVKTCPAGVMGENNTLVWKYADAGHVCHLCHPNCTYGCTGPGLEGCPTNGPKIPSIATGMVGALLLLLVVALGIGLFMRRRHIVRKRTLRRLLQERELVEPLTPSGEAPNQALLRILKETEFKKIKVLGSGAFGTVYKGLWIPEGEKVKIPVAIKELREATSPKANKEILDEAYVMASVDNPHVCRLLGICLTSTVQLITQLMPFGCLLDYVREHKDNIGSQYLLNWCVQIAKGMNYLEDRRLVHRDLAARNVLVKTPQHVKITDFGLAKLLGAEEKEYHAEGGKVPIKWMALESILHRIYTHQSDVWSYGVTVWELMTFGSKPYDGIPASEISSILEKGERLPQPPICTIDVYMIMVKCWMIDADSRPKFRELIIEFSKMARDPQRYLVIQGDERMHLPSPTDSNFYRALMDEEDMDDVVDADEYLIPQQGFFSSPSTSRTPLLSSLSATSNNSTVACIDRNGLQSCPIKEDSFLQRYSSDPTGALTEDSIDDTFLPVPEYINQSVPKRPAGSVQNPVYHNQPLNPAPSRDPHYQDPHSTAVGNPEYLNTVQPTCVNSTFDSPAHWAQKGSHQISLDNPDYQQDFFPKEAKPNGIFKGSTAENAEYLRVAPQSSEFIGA
Method: This assay measures the in vitro kinase activity of EGFR using ELISA.
1. Coat Coming 96 well ELISA plates with 0.5 μg SUMOl in 100 μL PBS per well, store overnight at 4° C.
5. Dilute lysate in PBS (7 μg lysate/100 μL PBS).
as §1
8. Add 120 μL TBS to ELISA plate containing captured EGFR.
9. Dilute test compound 1:10 in TBS in 96-well polypropylene plates (ie. 10 μL compound+90 μL TBS).
10. Add 13.5 μL diluted test compound to ELISA plate.
13. After 5 minutes, stop reaction by adding 16.5 μL of 200 mM EDTA (pH 8.0) to each well, shaking continuously. After the EDTA has been added, shake for 1 mm.
as §2, §3, §4
22. Read assay on Dynatech MR7000 ELISA reader. Test Filter: 410 nM Reference Filter: 630 Nm.

[4] = Table 5, in vitro kinase activity, read-out: PDGFr biochem IC50
[5] = Table 5, in vitro kinase activity, read-out: EGFr biochem IC50
[6] = Table 4, in vitro kinase activity, read-out: bio PDGFr IC50
[7] = Table 4, in vitro kinase activity, read-out: bio EGFr IC50
[8] = Table 7, in vitro kinase activity, read-out: EGFr biochem IC50

| Structure (SMILES) | IC50 ([1]; Table 5) [µM] | IC50 [2, 4] [µM] | IC50 [3, 5] [µM] | IC50 ([1]; Table 4) [µM] | IC50 [2, 6] [µM] | IC50 [3, 7] [µM] | also measured |
| --- | --- | --- | --- | --- | --- | --- | --- |
| CC(C)(C)c1cc(CC2C(=O)Nc3ccc(Cl)cc32)cc(Br)c1O (racemic) [AAI-28, 3-(3-Bromo-5-tert-butyl-4-hydroxybenzyl)-5-chloro-1,3-dihydroindol-2-one] | 48 | > 100 | > 100 | – | – | – | – |
| COc1ccc2c(c1)NC(=O)C2Cc1ccc(OC)c(-c2ccsc2)c1 (stereo not drawn) [AAI-1, 6-Methoxy-3-(4-methoxy-3-thiophen-3-ylbenzyl)-1,3-dihydroindol-2-one] | > 100 | > 100 | > 100 | – | – | – | – |
| O=C(Nc1ccc2c(c1)NC(=O)C2Cc1cc(Cl)cc(Cl)c1O)C1CCCC1 (stereo not drawn) [AAI-2, Cyclopentanecarboxylic Acid [3-(3,5-Dichloro-2-hydroxybenzyl)-2-oxo-2,3-dihydro-1H-indol-6-yl]-amide] | 50.5 | > 100 | > 100 | – | – | – | – |
| O=C(Nc1ccc2c(c1)NC(=O)C2Cc1cc(Cl)ccc1O)C1CCCC1 (stereo not drawn) [AAI-3, Cyclopentanecarboxylic Acid [3-(5-Chloro-2-hydroxybenzyl)-2-oxo-2,3-dihydro-1H-indol-6-yl]-amide] | > 100 | > 100 | > 100 | – | – | – | – |
| O=C1Nc2cccc(CCO)c2C1Cc1ccc(Br)cc1 (stereo not drawn) [AAI-14, 3-(4-Bromobenzyl)-4-(2-hydroxyethyl)-1,3-dihydroindol-2-one] | > 100 | > 100 | > 100 | – | – | – | – |
| CC(C)c1cc(CC2C(=O)Nc3ccc(Cl)cc32)cc(C(C)C)c1OCCN1CCOCC1 (stereo not drawn) [AAI-15, 5-Chloro-3-[3,5-diisopropyl-4-(2-morpholin-4-ylethoxy)-benzyl]-1,3-dihydroindol-2-one] | > 100 | > 100 | > 100 | – | – | – | – |
| Cc1[nH]c(CC2C(=O)Nc3ccc(Br)cc32)c(C)c1CCCN(C)C (stereo not drawn) [AAI-19, 5-Bromo-3-[4-(3-dimethylaminopropyl)-3,5-dimethyl-1H-pyrrol-2-ylmethyl]-1,3-dihydroindol-2-one] | > 100 | 0.25 | > 100 | – | – | – | – |
| Cc1[nH]c(C=C2C(=O)Nc3cc(-c4cccs4)ccc32)c(C)c1CCCN(C)C [AHI-8, 3-[4-(3-Dimethylaminopropyl)-3,5-dimethyl-1H-pyrrol-2-ylmethylene]-6-thiophen-2-yl-1,3-dihydroindol-2-one] | – | – | – | 71 | 0.52 | > 100 | – |
| COCCc1cccc2c1CC(=O)N2 [IN-018, 4-(2-Methoxy-ethyl)-1,3-dihydro-indol-2-one] | – | – | – | – | – | – | IC50 ([1]; Table 7): > 100 µM; IC50 [3, 8]: > 100 µM |
| CCOCCc1cccc2c1CC(=O)N2 [IN-019, 4-(2-Ethoxy-ethyl)-1,3-dihydro-indol-2-one] | – | – | – | – | – | – | IC50 ([1]; Table 7): > 100 µM; IC50 [3, 8]: > 100 µM |
| O=C1Cc2c(CCOc3cncc(Cl)c3)cccc2N1 [IN-021, 4-[2-(5-Chloro-pyridin-3-yloxy)-ethyl]1,3-dihydro-indol-2-one] | – | – | – | – | – | – | IC50 ([1]; Table 7): > 100 µM; IC50 [3, 8]: > 100 µM |
| CC(C)NC(=O)OCCc1cccc2c1CC(=O)N2 [IN-025, Isopropyl-carbamic acid 2-(2-oxo-2,3-dihydro-1H-indol-4-yl)-ethyl ester] | – | – | – | – | – | – | IC50 ([1]; Table 7): 3.9 µM; IC50 ([2]; Table 7, in vitro kinase activity, read-out: PDGFr biochem IC50): 70.8 µM; IC50 [3, 8]: > 100 µM |

Further lines, with some results ahead:

| IC50 ([1]; Table 5) [µM] | IC50 [2, 4] [µM] | IC50 [3, 5] [µM] | IC50 ([1]; Table 4) [µM] | IC50 [2, 6] [µM] | IC50 [3, 7] [µM] | Structure (SMILES) | also measured |
| --- | --- | --- | --- | --- | --- | --- | --- |
| > 100 | > 100 | > 100 | – | – | – | COc1ccc(-c2cc(CC3C(=O)Nc4ccccc43)c(O)cc2OC)cc1 (stereo not drawn) [AAI-4, 3-(4-Hydroxy-6,4′-dimethoxybiphenyl-3-ylmethyl)-1,3-dihydroindol-2-one] | – |
| 67.6 | > 100 | > 100 | – | – | – | O=C1Nc2cc(-c3ccccc3)ccc2C1Cc1cc(Br)ccc1O (stereo not drawn) [AAI-26, 3-(5-Bromo-2-hydroxybenzyl)-6-phenyl-1,3-dihydroindol-2-one] | – |
| – | – | – | > 100 | > 100 | > 100 | COc1ccc(C=C2C(=O)Nc3cc(-c4cccnc4)ccc32)cc1-c1cccs1 [AHI-1, 3-(4-Methoxy-3-thiophen-2-yl-benzylidene)-6-pyridin-3-yl-1,3-dihydroindol-2-one] | – |
| – | – | – | 31.5 | 49.9 | > 100 | O=C1Nc2cc(-c3cccnc3)ccc2C1=Cc1ccccc1O [AHI-2, 3-(2-Hydroxybenzylidene)-6-pyridin-3-yl-1,3-dihydroindol-2-one] | – |
| – | – | – | > 100 | > 100 | > 100 | COc1ccc(C=C2C(=O)Nc3cc(-c4cccs4)ccc32)cc1-c1cccs1 [AHI-3, 3-(4-Methoxy-3-thiophen-2-yl-benzylidene)-6-thiophen-2-yl-1,3-dihydroindol-2-one] | – |
| – | – | – | > 100 | > 100 | > 100 | O=C1Nc2cc(-c3cccs3)ccc2C1=Cc1ccccc1O [AHI-4, 3-(2-Hydroxybenzylidene)-6-thiophen-2-yl-1,3-dihydroindol-2-one] | – |
| – | – | – | > 100 | > 100 | > 100 | COc1ccc(C=C2C(=O)Nc3cc(-c4ccsc4)ccc32)cc1-c1cccs1 [AHI-5, 3-(4-Methoxy-3-thiophen-2-yl-benzylidene)-6-thiophen-3-yl-1,3-dihydroindol-2-one] | – |
| – | – | – | 57.3 | 76.6 | > 100 | O=C1Nc2cc(-c3ccsc3)ccc2C1=Cc1ccccc1O [AHI-6, 3-(2-Hydroxybenzylidene)-6-thiophen-3-yl-1,3-dihydroindol-2-one] | – |
| – | – | – | 16.8 | 0.02 | 12.1 | Cc1[nH]c(C=C2C(=O)Nc3cc(-c4cccnc4)ccc32)c(C)c1CCCN(C)C [AHI-7, 3-[4-(3-Dimethylaminopropyl)-3,5-dimethyl-1H-pyrrol-2-ylmethylene]-6-pyridin-3-yl-1,3-dihydroindol-2-one] | – |
